For eight molecules, activity coefficient results are on record in the NIST ThermoML archive (doi:10.1016/j.jct.2013.05.006).

The series can be described thus: activity coefficient (dimensionless); of the first substance listed, at infinite dilution; xn = mol fraction of the nth substance listed. The following applies: 298 K; 101 kPa; Liquid; Chromatography; x1 = 0.

Numbers after ± are expanded uncertainties.

Take `Clc1ccccc1Cl` [1,2-dichlorobenzene] + NC=O: the activity coefficient was determined as 159 ± 17. The same measure for `c1ccccc1` [benzene] + NC=O: 53 ± 6; for `c1ccc(-c2ccccc2)cc1` [biphenyl] + NC=O: 1320 ± 150. The same measure for `Brc1ccccc1` [bromobenzene] + NC=O: 107 ± 13; for `Clc1ccccc1` [chlorobenzene] + NC=O: 94 ± 16. The same measure for `Fc1ccccc1` [fluorobenzene] + NC=O: 54 ± 6.

With `c1ccc2ccccc2c1` [naphthalene] + NC=O, the activity coefficient worked out at 533 ± 63. The same measure for `Cc1ccccc1` [toluene] + NC=O: 81 ± 8.
